From patent US20100069409A1, “"NOVEL COMPOUNDS"” (GLAXO GROUP LIMITED, priority 2006, published 2010) come the findings set out here.

As a reminder, the melting point is the temperature, or range, at which the solid turns liquid. `Cc1c(F)cc(C(=O)NC2CC2)cc1-c1nc(NC(CO)CO)nc2c1ccc(=O)n2-c1c(F)cccc1F` [Example 49, N-cyclopropyl-3-(8-(2,6-difluorophenyl)-2-{[2-hydroxy-1-(hydroxymethyl)ethyl]amino}-7-oxo-7,8-dihydropyrido[2,3-d]pyrimidin-4-yl)-5-fluoro-4-methylbenzamide] showed a melting point of 214.2 to 217.5 °C.

`CSc1nc(-c2cc(C(=O)N(C)C)ccc2C)c2c(n1)N(c1c(F)cccc1F)C(=O)NC2` [Example 73, 3-[8-(2,6-difluorophenyl)-2-(methylthio)-7-oxo-5,6,7,8-tetrahydropyrimido[4,5-d]pyrimidin-4-yl]-N,N,4-trimethylbenzamide] gave a melting point of 144 to 147 °C.
